Source: US8299048B2, “Hexahydrocyclopentyl[f]indazole sulfonamides and derivatives thereof as selective glucocorticoid receptor modulators” (Merck Sharp & Dohme Corp., priority 2008, dated 2012)

Molecular target: T1, human GR (Homo sapiens, UniProt P04150)
T1 sequence (P04150 1-777): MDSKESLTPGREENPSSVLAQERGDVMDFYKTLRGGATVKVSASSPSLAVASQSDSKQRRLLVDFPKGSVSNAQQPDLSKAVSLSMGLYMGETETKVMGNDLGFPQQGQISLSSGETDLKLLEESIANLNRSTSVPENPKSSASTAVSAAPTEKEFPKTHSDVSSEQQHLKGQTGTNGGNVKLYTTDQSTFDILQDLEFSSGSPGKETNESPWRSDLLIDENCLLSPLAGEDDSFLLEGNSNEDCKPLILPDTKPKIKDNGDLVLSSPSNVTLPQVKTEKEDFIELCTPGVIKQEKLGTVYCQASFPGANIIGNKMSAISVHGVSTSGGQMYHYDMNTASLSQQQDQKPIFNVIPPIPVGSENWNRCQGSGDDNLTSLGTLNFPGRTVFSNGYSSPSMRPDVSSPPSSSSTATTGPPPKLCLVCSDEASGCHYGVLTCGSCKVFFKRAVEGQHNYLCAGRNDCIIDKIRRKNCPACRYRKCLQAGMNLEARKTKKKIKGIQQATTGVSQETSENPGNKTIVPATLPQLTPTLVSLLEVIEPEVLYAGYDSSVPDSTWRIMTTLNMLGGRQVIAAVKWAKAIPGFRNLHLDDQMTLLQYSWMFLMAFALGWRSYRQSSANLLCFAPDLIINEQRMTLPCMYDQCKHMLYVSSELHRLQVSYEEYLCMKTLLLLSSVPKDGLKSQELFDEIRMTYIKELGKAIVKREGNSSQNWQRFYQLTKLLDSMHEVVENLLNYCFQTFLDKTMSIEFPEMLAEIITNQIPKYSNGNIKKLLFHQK
Assay: Trans-Activation Modulation of Glucocorticoid Receptor (GRAMMER), MMTV-LUC reporter, agonist mode
Assay type: cell-based
Design: endogenous in cells
Settings: for Emax: A549, A549 cells, maximum activity, read-out: Transactivation A549 Cells GRAMMER Emax; for EC50: A549 cells, inflection point, read-out: Transactivation A549 Cells GRAMMER IP
Outline: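 Readout is luciferase from a modified MMTV LTR promoter after 24 h compound exposure alongside 10 nM dexamethasone (100% activity reference), DMSO ≤1%.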

| SMILES | Emax [%] | EC50 [nM] |
| --- | --- | --- |
| C[C@]12Cc3cnn(-c4ccc(F)cc4)c3C=C1CC[C@@H]2CN(CC(O)C(F)(F)F)S(=O)(=O)Cc1cccnc1 (stereo partly drawn) [Example 149, N-{[(4αR,5S)-1-(4-fluorophenyl)-4α-methyl-1,4,4α,5,6,7-hexahydrocyclopenta[f]indazol-5-yl]methyl}-1-pyridin-3-yl-N-(3,3,3-trifluoro-2-hydroxypropyl)methanesulfonamide] | 32.4 | 351 |
| CCCS(=O)(=O)N(CCc1ccccn1)C[C@H]1CCC2=Cc3c(cnn3-c3ccc(F)cc3)C[C@@]21C [Example 151, N-{[(4αR,5S)-1-(4-fluorophenyl)-4α-methyl-1,4,4α,5,6,7-hexahydrocyclopenta[f]indazol-5-yl]methyl}-N-(2-pyridin-2-ylethyl)propane-1-sulfonamide] | 76 | 421 |
| CCCS(=O)(=O)N(CC(O)C(F)(F)F)C[C@H]1CCC2=Cc3c(cnn3-c3ccc(F)cc3)C[C@@]21C (stereo partly drawn) [Example 148, N-{[(4αR,5S)-1-(4-fluorophenyl)-4α-methyl-1,4,4α,5,6,7-hexahydrocyclopenta[f]indazol-5-yl]methyl}-N-(3,3,3-trifluoro-2-hydroxypropyl)propane-1-sulfonamide] | 62.6 | 403 |
| COC(=O)c1ccccc1CCN(C[C@H]1CCC2=Cc3c(cnn3-c3ccc(F)cc3)C[C@@]21C)S(=O)(=O)CC(F)(F)F [Example 159, methyl 2-(2-{{[(4αR,5S)-1-(4-fluorophenyl)-4α-methyl-1,4,4α,5,6,7-hexahydrocyclopenta[f]indazol-5-yl]methyl}[(2,2,2-trifluoroethyl)sulfonyl]amino}ethyl)benzoate] | 28.9 | 367 |
| C[C@]12Cc3cnn(-c4ccc(F)cc4)c3C=C1CC[C@@H]2CN(CC(O)C(F)F)S(=O)(=O)Cc1cccnc1 (stereo partly drawn) [Example 154, N-(3,3-difluoro-2-hydroxypropyl)-N-{[(4αR,5S)-1-(4-fluorophenyl)-4α-methyl-1,4,4α,5,6,7-hexahydrocyclopenta[f]indazol-5-yl]methyl}-1-pyridin-3-ylmethanesulfonamide] | 17.9 | 509 |
| CC(=O)Nc1ccc(S(=O)(=O)N(CC2CC2)C[C@H]2CCC3=Cc4c(cnn4-c4ccc(F)cc4)C[C@@]32C)cc1 [Example 6, N-{4-[((cyclopropylmethyl){[(4αR,5S)-1-(4-fluorophenyl)-4α-methyl-1,4,4α,5,6,7-hexahydrocyclopenta[f]indazol-5-yl]methyl}amino)sulfonyl]phenyl}acetamide] | 13 | 402 |
| COC(=O)c1ccccc1CS(=O)(=O)N(CC(O)C(F)(F)F)C[C@H]1CCC2=Cc3c(cnn3-c3ccc(F)cc3)C[C@@]21C (stereo partly drawn) [Example 162, methyl 2-({[{[(4αR,5S)-1-(4-fluorophenyl)-4α-methyl-1,4,4α,5,6,7-hexahydrocyclopenta[f]indazol-5-yl]methyl}(3,3,3-trifluoro-2-hydroxypropyl)amino]sulfonyl}methyl)benzoate] | 87.1 | 323 |
| CC(C)CS(=O)(=O)N(CCc1ccccc1F)C[C@H]1CCC2=Cc3c(cnn3-c3ccc(F)cc3)C[C@@]21C [Example 103, N-[2-(2-fluorophenyl)ethyl]-N-{[(4αR,5S)-1-(4-fluorophenyl)-4α-methyl-1,4,4α,5,6,7-hexahydrocyclopenta[f]indazol-5-yl]methyl}-2-methylpropane-1-sulfonamide] | 68.8 | 367 |
| C[C@]12Cc3cnn(-c4ccccc4)c3C=C1CC[C@@H]2CN(CCc1ccccn1)S(=O)(=O)Cc1cccnc1 [Example 140, N-{[(4αR,5S)-4α-methyl-1-phenyl-1,4,4α,5,6,7-hexahydrocyclopenta[f]indazol-5-yl]methyl}-1-pyridin-3-yl-N-(2-pyridin-2-ylethyl)methanesulfonamide] | 21.3 | 704 |
| C[C@]12Cc3cnn(-c4ccc(F)cc4)c3C=C1CC[C@@H]2CN(CCc1ccccc1F)S(=O)(=O)Cc1ccc(Cl)c(Cl)c1 [Example 111, 1-(3,4-dichlorophenyl)-N-[2-(2-fluorophenyl)ethyl]-N-{[(4αR,5S)-1-(4-fluorophenyl)-4α-methyl-1,4,4α,5,6,7-hexahydrocyclopenta[f]indazol-5-yl]methyl}methanesulfonamide] | 37.6 | 748 |
| C[C@]12Cc3cnn(-c4ccc(F)cc4)c3C=C1CC[C@@H]2CN(CCO)S(=O)(=O)c1ccccc1C(N)=O [Example 117, 2-{[{[(4αR,5S)-1-(4-fluorophenyl)-4α-methyl-1,4,4α,5,6,7-hexahydrocyclopenta[f]indazol-5-yl]methyl}(2-hydroxyethyl)amino]sulfonyl}benzamide] | 45.1 | 449 |

The next compounds have a lower EC50 than those just listed; values first:

| Emax [%] | EC50 [nM] | SMILES |
| --- | --- | --- |
| 6.6 | 202 | COc1ccccc1CCN(C[C@H]1CCC2=Cc3c(cnn3-c3ccc(F)cc3)C[C@@]21C)S(=O)(=O)Cc1cccc(C(F)(F)F)c1 [Example 119, N-{[(4αR,5S)-1-(4-fluorophenyl)-4α-methyl-1,4,4α,5,6,7-hexahydrocyclopenta[f]indazol-5-yl]methyl}-N-[2-(2-methoxyphenyl)ethyl]-1-[3-(trifluoromethyl)phenyl]methanesulfonamide] |
| 48.4 | 241 | C[C@]12Cc3cnn(-c4ccc(F)cc4)c3C=C1CC[C@@H]2CN(CCc1ccccc1CO)S(=O)(=O)CC(F)(F)F [Example 163, 2,2,2-trifluoro-N-{[(4αR,5S)-1-(4-fluorophenyl)-4α-methyl-1,4,4α,5,6,7-hexahydrocyclopenta[f]indazol-5-yl]methyl}-N-{2-[2-(hydroxymethyl)phenyl]ethyl}ethanesulfonamide] |
| 85.4 | 54.7 | C[C@H](O)CN(C[C@H]1CCC2=Cc3c(cnn3-c3ccc(F)cc3)C[C@@]21C)S(=O)(=O)CC(F)(F)F [Example 113] |
| 85.5 | 193 | C[C@]12Cc3cnn(-c4ccc(F)cc4)c3C=C1CC[C@@H]2CN(CCc1ccccc1F)S(=O)(=O)Cc1ccc(Cl)cc1Cl [Example 105, 1-(2,4-dichlorophenyl)-N-[2-(2-fluorophenyl)ethyl]-N-{[(4αR,5S)-1-(4-fluorophenyl)-4α-methyl-1,4,4α,5,6,7-hexahydrocyclopenta[f]indazol-5-yl]methyl}methanesulfonamide] |
| 58.8 | 279 | C[C@]12Cc3cnn(-c4ccc(F)cc4)c3C=C1CC[C@@H]2CN(CC1(OS(=O)(=O)CC(F)(F)F)CC1)S(=O)(=O)CC(F)(F)F [Example 136, 1-({{[(4αR,5S)-1-(4-fluorophenyl)-4α-methyl-1,4,4α,5,6,7-hexahydrocyclopenta[f]indazol-5-yl]methyl}[(2,2,2-trifluoroethyl)sulfonyl]amino}methyl)cyclopropyl 2,2,2-trifluoroethanesulfonate] |
| 69.1 | 252 | C[C@]12Cc3cnn(-c4ccc(F)cc4)c3C=C1CC[C@@H]2CN(CCc1ccccn1)S(=O)(=O)CC(F)(F)F [Example 128, 2,2,2-trifluoro-N-{[(4αR,5S)-1-(4-fluorophenyl)-4α-methyl-1,4,4α,5,6,7-hexahydrocyclopenta[f]indazol-5-yl]methyl}-N-(2-pyridin-2-ylethyl)ethanesulfonamide] |
| 68.8 | 127 | C[C@]12Cc3cnn(-c4ccc(F)cc4)c3C=C1CC[C@@H]2CN(CC1(O)CC1)S(=O)(=O)CC(F)(F)F [Example 135, 2,2,2-trifluoro-N-{[(4αR,5S)-1-(4-fluorophenyl)-4α-methyl-1,4,4α,5,6,7-hexahydrocyclopenta[f]indazol-5-yl]methyl}-N-[(1-hydroxycyclopropyl)methyl]ethanesulfonamide] |
| 99.2 | 218 | C[C@]12Cc3cnn(-c4ccc(F)cc4)c3C=C1CC[C@@H]2CN(CCc1ccccc1F)S(=O)(=O)Cc1cccnc1 [Example 124, N-[2-(2-fluorophenyl)ethyl]-N-{[(4αR,5S)-1-(4-fluorophenyl)-4α-methyl-1,4,4α,5,6,7-hexahydrocyclopenta[f]indazol-5-yl]methyl}-1-pyridin-3-ylmethanesulfonamide] |
| 83.5 | 252 | C[C@]12Cc3cnn(-c4ccc(F)cc4)c3C=C1CC[C@@H]2CN(CC(O)c1cccnc1)S(=O)(=O)CC(F)(F)F (stereo partly drawn) [Example 143, 2,2,2-trifluoro-N-{[(4αR,5S)-1-(4-fluorophenyl)-4α-methyl-1,4,4α,5,6,7-hexahydrocyclopenta[f]indazol-5-yl]methyl}-N-(2-hydroxy-2-pyridin-3-ylethyl)ethanesulfonamide] |
| 78.1 | 123 | C[C@]12Cc3cnn(-c4ccc(F)cc4)c3C=C1CC[C@@H]2CN(CC(O)c1ccccn1)S(=O)(=O)CC(F)(F)F (stereo partly drawn) [Example 142, 2,2,2-trifluoro-N-{[(4αR,5S)-1-(4-fluorophenyl)-4α-methyl-1,4,4α,5,6,7-hexahydrocyclopenta[f]indazol-5-yl]methyl}-N-(2-hydroxy-2-pyridin-2-ylethyl)ethanesulfonamide] |
